In patent EP0845266A2, “Sweet whey concentrate containing antioxidant compositions” (MK-Produktkontor GmbH, priority 1996, dated 1998):

Target: T1, Myeloperoxidase (MPO) (Homo sapiens, UniProt P05164)
T1 sequence (P05164 49-745): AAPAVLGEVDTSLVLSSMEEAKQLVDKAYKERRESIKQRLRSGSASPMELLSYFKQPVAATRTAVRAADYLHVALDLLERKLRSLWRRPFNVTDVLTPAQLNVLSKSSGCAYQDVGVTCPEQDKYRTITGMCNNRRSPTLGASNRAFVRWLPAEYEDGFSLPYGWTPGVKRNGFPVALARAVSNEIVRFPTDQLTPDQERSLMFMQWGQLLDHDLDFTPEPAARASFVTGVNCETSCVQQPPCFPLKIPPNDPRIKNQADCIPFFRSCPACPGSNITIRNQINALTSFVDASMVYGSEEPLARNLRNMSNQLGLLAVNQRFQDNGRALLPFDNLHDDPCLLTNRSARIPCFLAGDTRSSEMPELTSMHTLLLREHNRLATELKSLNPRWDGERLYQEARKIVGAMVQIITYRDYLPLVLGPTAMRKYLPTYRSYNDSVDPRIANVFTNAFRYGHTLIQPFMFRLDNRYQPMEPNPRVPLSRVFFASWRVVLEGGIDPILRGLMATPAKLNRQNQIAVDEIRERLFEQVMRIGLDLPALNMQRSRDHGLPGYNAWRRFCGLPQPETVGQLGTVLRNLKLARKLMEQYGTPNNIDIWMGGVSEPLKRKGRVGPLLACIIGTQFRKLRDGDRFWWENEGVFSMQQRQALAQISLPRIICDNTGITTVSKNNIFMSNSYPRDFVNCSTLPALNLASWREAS
Assay: Myeloperoxidase reaction: MPO-catalysed formation of HOCl, measured as ethylene release from ACC by gas chromatography
Format: biochemical
Conditions: CAR, in mixtures SMK 3 mg im Ansatz, 30 min, 37 °C, pH 5,7, read-out: % Hemmung; for inhibition at 100 µM: 0,1 mM AN; for inhibition at 1000 µM: 1,0 mM AN
Text: Die Inhibitionswirkung wurde in einem In-vitro-Teststystem geprüft, das die oxidativen Prozesse während eine Entzündung simulieren soll.
Myeloperoxidase (MPO) wird von aktivierten Leukozyten während der Degranulation in das Phagosom und das umliegende Gewebe abgegeben. Das Enzym katalysiert die Bildung von HOCl aus H2O2 und Chlorid. Durch Messung der HOCl-Konzentration in dem Reaktionssystem kann das Ausmaß der Inhibition bestimmt werden. Hypochlorit (HOCl) spaltet spezifisch Aminocyclopropancarbonsäure (ACC), wobei Ethylen entsteht.
Dieses wiederum kann gaschromatographisch identifiziert werden.
Der Einfluß einer Mischung aus Süßmolkekonzentrat (SMK) und Anserin bzw. Carnosin sowie der einzelnen Komponenten in den in Tabelle 1 angegebenen Konzentrationen auf die MPO-katalysierte Bildung von HOCl wurde untersucht. Tabelle 1
Es wurde folgender Ansatz verwendet: 0,15 M NaCl, 25 µM H2O2, 0,1 E MPO, 0,1 M Phosphatpuffer mit einem pH-Wert von 5,7 und 1 mM ACC. Die Inkubationsdauer beträgt 30 Minuten bei 37 °C. Die Ethylen-Freisetzungsrate eines Ansatzes ohne Zugabe potentieller Inhibitorstoffe entspricht einer Grundrate von 100% (0% Hemmung).

| inhibition at 100 µM [%] | inhibition at 1000 µM [%] | SMILES |
| --- | --- | --- |
| 23 | 84 | Cn1cncc1C[C@H](NC(=O)CCN)C(=O)O [AN, Anserin] |
| 23 | 86 | NCCC(=O)N[C@@H](Cc1cnc[nH]1)C(=O)O [CAR, Carnosin] |
